Measurements from patent US10662204B2 (PFIZER INC., priority 2018, dated 2020).

How the values were obtained:
[1] = molecular target: T1, GDP-loaded KRAS (1-169) G12C, C51S, C80L, C118S (Homo sapiens, UniProt P01116, C118S/C51S/C80L/G12C); experiment: Mass Spectrometry Reactivity Assay (MSRA): covalent adduct of compound and KRAS G12C, Percent Modification; assay type: binding; conditions: for MSRA (% modification) 10 μM 0.50 hr / MSRA (% modification) 10 μM 0.25 hr: 10 μM compound; for MSRA (% modification) 5.0 μM 0.25 hr / MSRA (% modification) 5.0 μM 0.017 hr: 5.0 μM compound
T1 construct: GDP-loaded KRAS (1-169) G12C, C51S, C80L, C118S
Outline: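 Covalent labelling is measured by intact mass: deconvoluted modified and unmodified peak intensities yield percent modification. Compound, usually 5 μM or 10 μM final, reacts at room temperature with 5 μM GDP-bound KRAS G12C (1-169, C51S/C80L/C118S) in Hepes pH 7.5/NaCl/glycerol, sampled at 1, 15, 30, 60 min.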

[2] = molecular target: KRAS G12C (Homo sapiens, UniProt P01116, G12C); experiment: Cell Activity Assay: accumulation of GDP-bound KRAS G12C in MIAPaCa-2 cells (Raf-1 RBD capture, MSD readout); assay type: cell-based; parameters: endogenous in cells; host or cells: MIAPaCa-2; conditions: 6 hours, assay limit is 30.00
Outline: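 IC50 came from a 4-parameter fit of Ras signal normalized between DMSO and full-inhibition controls. Readout: lysate GTP-Ras bound to immobilized Raf-1 RBD, quantified with pan-Ras antibody and MSD electrochemiluminescence. Lysates derived from MIAPaCa-2 cells treated 6 h with serially diluted compound, 0.3% DMSO.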

| Structure (SMILES) | MSRA (% modification) 10 μM 0.50 hr [1] [%] | IC50 [2] [µM] | MSRA (% modification) 10 μM 0.25 hr [1] [%] | MSRA (% modification) 5.0 μM 0.25 hr [1] [%] | MSRA (% modification) 5.0 μM 0.017 hr [1] [%] |
| --- | --- | --- | --- | --- | --- |
| C=CC(=O)N1CCN(c2nc(OC)nc3c(Oc4c(C)ccc5[nH]ncc45)nccc23)CC1 [Example 01B, 1-(4-{2-methoxy-8-[(5-methyl-1H-indazol-4-yl)oxy]pyrido[3,4-d]pyrimidin-4-yl}piperazin-1-yl)prop-2-en-1-one] | 12 | 16.9 |  |  |  |
| C=CC(=O)N1CCN(c2ncnc3c(Oc4c(C)c(Cl)cc5[nH]ncc45)cccc23)CC1CC#N (stereo not drawn) [Example 22C, (1-acryloyl-4-{8-[(5-chloro-6-mehtyl-1H-indazol-4-yl)oxy]quinazolin-4-yl}piperazin-2-yl)acetonitrile] | 75 | 14 | 75 |  |  |
| C=CC(=O)N1CCN(c2nc(N3CC(N(C)C)C3)nc3c(Oc4c(Cl)c(F)cc5[nH]ncc45)nc(Cl)cc23)CC1 [Example 05G, 1-(4-{6-chloro-8-[(5-chloro-6-fluoro-1H-indazol-4-yl)oxy]-2-[3-(dimethylamino)azetidin-1-yl]pyrido[3,4-d]pyrimidin-4-yl}piperazin-1-yl)prop-2-en-1-one] | 82 | 0.164 | 81 | 80 |  |
| C=CC(=O)N1CCN(c2nc(O[C@@H]3CN(C(C)C)C[C@H]3OC)nc3c(Oc4c(Cl)c(F)cc5[nH]ncc45)nccc23)CC1 [Example 20I, 1-[4-(8-[(5-chloro-6-fluoro-1H-indazol-4-yl)oxy]-2-{[(3R,4R)-4-methoxy-1-(propan-2-yl)pyrrolidin-3-yl]oxy}pyrido [3,4-d]pyrimidin-4-yl)piperazin-1-yl]prop-2-en-1-one] |  | 0.016 |  |  | 73 |
| C=CC(=O)N1CCN(c2ncnc3c(Oc4c(C)ccc5[nH]ncc45)cccc23)[C@@H](C)C1 [Example 10C, 1-[(3S)-3-methyl-4-{8-[(5-methyl-1H-indazol-4-yl)oxy]quinazolin-4-yl}piperazin-1-yl]prop-2-en-1-one] | 27 | 5.21 |  |  |  |
| C=CC(=O)N1CCN(c2nc(N3CC(N(C)C)C3)nc3c(Oc4c(C)ccc5[nH]ncc45)nc(C)cc23)[C@@H](C)C1 [Example 05B, 1-[(3S)-4-{2-[3-(dimethylamino)azetidin-1-yl]-6-methyl-8-[(5-methyl-1H-indazol-4-yl)oxy]pyrido[3,4-d]pyrimidin-4-yl}-3-methylpiperazin-1-yl]prop-2-en-1-one] | 15 | 4.03 |  |  |  |
| C=CC(=O)N1CCN(c2nc(O[C@@H]3COC[C@H]3N(C)C)nc3c(Oc4c(Cl)c(F)cc5[nH]ncc45)nccc23)CC1 (racemic) [Example 23I, rac-1-[4-(8-[(5-chloro-6-fluoro-1H-indazol-4-yl)oxy]-2-{[(3S,4R)-4-(dimethyl-amino)oxolan-3-yl]oxy}pyrido [3,4-d]pyrimidin-4-yl)piperazin-1-yl]prop-2-en-1-one] |  | 0.348 |  |  | 12 |
| C=CC(=O)N1CCN(c2nc(O[C@@H]3CN(C)C[C@H]3CC)nc3c(Oc4c(Cl)c(F)cc5[nH]ncc45)nccc23)CC1 (racemic) [Example 21I, rac-1-[4-(8-[(5-chloro-6-fluoro-1H-indazol-4-yl)oxy]-2-{[(3S,4R)-4-ethyl-1-methyl-pyrrolidin-3-yl]oxy}pyrido [3,4-d]pyrimidin-4-yl)piperazin-1-yl]prop-2-en-1-one] |  | 0.094 |  |  | 42 |
| C=CC(=O)N1CCN(c2nc(OCCCN(C)C)nc3c(Oc4c(Cl)c(C)cc5[nH]ncc45)cc(Cl)cc23)CC1 [Example 12E, 1-(4-{6-chloro-8-[(5-chloro-6-methyl-1H-indazol-4-yl)oxy]-2-[3-(dimethylamino)propoxy]quinazolin-4-yl}piperazin-1-yl)prop-2-en-1-one] | 79 | 0.835 |  |  |  |
| C=CC(=O)N1CCN(c2ncnc3c(Oc4c(C)ccc5[nH]ncc45)cc(Br)cc23)CC1 [Example 13C, 1-(4-{6-bromo-8-[(5-methyl-1H-indazol-4-yl)oxy]quinazolin-4-yl}piperazin-1-yl)prop-2-en-1-one] | 36 | 3.74 |  |  |  |
| C=CC(=O)N1CCN(c2nc(OC[C@@H]3COCCN3C)nc3c(Oc4c(Cl)c(F)cc5[nH]ncc45)nccc23)CC1 [Example 03H, 1-[4-(8-[(5-chloro-6-fluoro-1H-indazol-4-yl)oxy]-2-{[(3S)-4-methylmorpholin-3-yl]methoxy}pyrido[3,4-d]pyrimidin-4-yl)piperazin-1-yl]prop-2-en-1-one] | 72 | 0.842 |  | 51 |  |
| C=CC(=O)N1CCN(c2nc(Oc3cccc4c3CN(C)C4)nc3c(Oc4c(Cl)c(F)cc5[nH]ncc45)nccc23)CC1 [Example 41I, 1-(4-{8-[(5-chloro-6-fluoro-1H-indazol-4-yl)oxy]-2-[(2-methyl-2,3-dihydro-1H-isoindol-4-yl)oxy]pyrido [3,4-d]pyrimidin-4-yl}piperazin-1-yl)prop-2-en-1-one] |  | 0.021 |  |  | 70 |
| C=CC(=O)N1CCN(c2nc(Oc3cccc4c3CCN(CC)C4)nc3c(Oc4c(Cl)c(F)cc5[nH]ncc45)nccc23)CC1 [Example 17I, 1-(4-{8-[(5-chloro-6-fluoro-1H-indazol-4-yl)oxy]-2-[(2-ethyl-1,2,3,4-tetrahydro-isoquinolin-5-yl)oxy]pyrido [3,4-d]pyrimidin-4-yl}piperazin-1-yl)prop-2-en-1-one] |  | 0.005 |  |  | 82 |
| C=CC(=O)N1CCN(c2nc(O[C@@H]3CN(C)C[C@H]3OCC)nc3c(Oc4c(Cl)c(F)cc5[nH]ncc45)nccc23)CC1 [Example 18I, 1-[4-(8-[(5-chloro-6-fluoro-1H-indazol-4-yl)oxy]-2-{[(3R,4R)-4-ethoxy-1-methyl-pyrrolidin-3-yl]oxy}pyrido [3,4-d]pyrimidin-4-yl)piperazin-1-yl]prop-2-en-1-one] |  | 0.093 |  |  | 35 |
| C=CC(=O)N1CCN(c2ncnc3c(Oc4c(C)ccc5[nH]ncc45)cccc23)C[C@H]1C [Example 03C, 1-[(2R)-2-methyl-4-{8-[(5-methyl-1H-indazol-4-yl)oxy]quinazolin-4-yl}piperazin-1-yl]prop-2-en-1-one] | 8 | 24.2 | 3 |  |  |
| C=CC(=O)N1CCN(c2nc(OCCCN(C)C)nc3c(Oc4c(C)ccc5[nH]ncc45)nccc23)CC1 [Example 04B, 1-(4-{2-[3-(dimethylamino)propoxy]-8-[(5-methyl-1H-indazol-4-yl)oxy]pyrido[3,4-d]pyrimidin-4-yl}piperazin-1-yl)prop-2-en-1-one] | 21 | 23 |  |  |  |
| C=CC(=O)N1CCN(c2ncnc3c(Oc4c(Cl)c(C)cc5[nH]ncc45)nc(C)cc23)CC1 [Example 05C, 1-(4-{8-[(5-chloro-6-methyl-1H-indazol-4-yl)oxy]-6-methylpyrido[3,4-d]pyrimidin-4-yl}piperazin-1-yl)prop-2-en-1-one] | 61 | 1.29 |  |  |  |
| C=CC(=O)N1CCN(c2nc(OC[C@@H]3CCCN3C)nc3c(Oc4c(Cl)c(F)cc5[nH]ncc45)cccc23)CC1 [Example 16E, 1-[4-(8-[(5-chloro-6-fluoro-1H-indazol-4-yl)oxy]-2-{[(2S)-1-methylpyrrolidin-2-yl]methoxy}quinazolin-4-yl)piperazin-1-yl]prop-2-en-1-one] |  | 0.413 | 11 |  |  |
| C=CC(=O)N1CCN(c2ncnc3c(Oc4c(Cl)c(F)cc5[nH]ncc45)nc(Cl)cc23)[C@@H](C)C1 [Example 39A, 1-[(3S)-4-{6-chloro-8-[(5-chloro-6-fluoro-1H-indazol-4-yl)oxy]pyrido[3,4-d]pyrimidin-4-yl}-3-methylpiperazin-1-yl]prop-2-en-1-one] |  | 0.246 | 74 |  |  |
| C=CC(=O)N1CCN(c2nc(OC[C@@]3(F)CCCN(C)C3)nc3c(Oc4c(Cl)c(F)cc5[nH]ncc45)nccc23)CC1 [Example 15I, 1-[4-(8-[(5-chloro-6-fluoro-1H-indazol-4-yl)oxy]-2-{[(3R)-3-fluoro-1-methyl-piperidin-3-yl]methoxy}pyrido [3,4-d]pyrimidin-4-yl)piperazin-1-yl]prop-2-en-1-one] |  | 0.126 |  | 81 |  |
| C=CC(=O)N1CCN(c2nc(OCc3nncn3C)nc3c(Oc4c(C)ccc5[nH]ncc45)cccc23)CC1 [Example 07F, 1-(4-{8-[(5-methyl-1H-indazol-4-yl)oxy]-2-[(4-methyl-4H-1,2,4-triazol-3-yl)methoxy]quinazolin-4-yl}piperazin-1-yl)prop-2-en-1-one] | 75 | 21.2 | 74 | 22 |  |
| C=CC(=O)N1CCN(c2nc(O[C@@H]3CN(C)C[C@H]3OC)nc3c(Oc4c(Cl)c(F)cc5[nH]ncc45)nccc23)[C@H](C)C1 [Example 34I, 1-[(3R)-4-(8-[(5-chloro-6-fluoro-1H-indazol-4-yl)oxy]-2-{[(3R,4R)-4-methoxy-1-methyl-pyrrolidin-3-yl]oxy}pyrido [3,4-d]pyrimidin-4-yl)-3-methyl-piperazin-1-yl]prop-2-en-1-one] |  | 0.935 |  |  | 52 |
